Experimental data taken from patent publication US20230286969A1, “AROMATIC SPIRO RING AMIDE DERIVATIVES FOR THE TREATMENT AND PROPHYLAXIS OF HEPATITIS B VIRUS INFECTION” (Hoffmann-La Roche Inc., priority 2020, published 2023).

Tests used:
Type in all cases: cell-based
HBeAg = assay: PHH HBV natural infection assay, HBeAg (alphalisa); details: Hepatitis B virus, Hepatocyte, 72 h, read-out: HbeAg IC50, HBV-infected primary human hepatocytes, supernatant, compound medium refreshed two times with 72-hour interval
Method in brief: (§1)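 Primary human hepatocytes infected with HBV at 200 GE/cell plus 4% PEG8000 for 24 h, then sandwich-cultured 72 h. Compounds were added in two refreshes 72 h apart. HBsAg and HBeAg in supernatant measured by AlphaLISA.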

[1] = PHH natural infection assay, cytotoxicity (Cell Counting Kit-8); details: human, HBV-infected primary human hepatocytes, CCK8, end of treatment
Method in brief: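 HBV-infected at 200 GE/cell with 4% PEG8000 for 24 h, then sandwich-cultured 72 h in 1% DMSO and 0.25 mg/mL matrix gel. Compound added twice at 72-h intervals; supernatant HBsAg and HBeAg read by AlphaLISA, HBV DNA by quantitative fluorescence PCR kit. Cytotoxicity by CCK-8.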

HBsAg = assay: PHH HBV natural infection assay, HBsAg (alphalisa); details: Hepatitis B virus, Hepatocyte, 72 h, read-out: HBsAg IC50, HBV-infected primary human hepatocytes, supernatant, compound medium refreshed two times with 72-hour interval
Method in brief: as §1

SMILES	IC50 (HBeAg) [nM]	CC50 at 144 h [1] [nM]	IC50 (HBsAg) [nM]
CS(=O)(=O)c1ccc(C(=O)NC2CC3(C2)CC(c2nc4cc(Cl)ccc4o2)C3)s1 (stereo not drawn) [Example 45, N-[6-(5-chloro-1,3-benzoxazol-2-yl)spiro[3.3]heptan-2-yl]-5-methylsulfonyl-thiophene-2-carboxamide]	1900	> 100000	2210
O=C(NC1CC2(C1)CC(c1nc3ccc(Cl)cc3o1)C2)c1ccc(C(F)(F)F)o1 (stereo not drawn) [Example 46, N-[6-(6-chloro-1,3-benzoxazol-2-yl)spiro[3.3]heptan-2-yl]-5-(trifluoromethyl)furan-2-carboxamide]	2810	89800	5830
O=C(NC1CC2(C1)CC(c1nc3ccc(F)cc3o1)C2)c1ccc(C(F)(F)F)o1 (stereo not drawn) [Example 47, N-[6-(6-fluoro-1,3-benzoxazol-2-yl)spiro[3.3]heptan-2-yl]-5-(trifluoromethyl)furan-2-carboxamide]	10600	> 100000	9590
CS(=O)(=O)c1ccc(C(=O)NC2CC3(C2)CC(c2nc4cc(Cl)cnc4o2)C3)o1 (stereo not drawn) [Example 48, N-[6-(6-chlorooxazolo[5,4-b]pyridin-2-yl)spiro[3.3]heptan-2-yl]-5-methylsulfonyl-furan-2-carboxamide]	1820	> 100000	2400
O=C(NC1CC2(C1)CC(c1nc3cc(Cl)cnc3o1)C2)c1ccc(S(=O)(=O)C2CC2)o1 (stereo not drawn) [Example 49, N-[6-(6-chlorooxazolo[5,4-b]pyridin-2-yl)spiro[3.3]heptan-2-yl]-5-cyclopropylsulfonyl-furan-2-carboxamide]	1740	84500	2400
O=C(NC1CC2(C1)CC(c1nc3cc(Cl)cnc3o1)C2)c1ccc([S+]([O-])C2CC2)o1 (stereo not drawn) [Example 50, N-[6-(6-chlorooxazolo[5,4-b]pyridin-2-yl)spiro[3.3]heptan-2-yl]-5-cyclopropylsulfinyl-furan-2-carboxamide]	350	> 100000	540
O=C(NC1CC2(C1)CC(c1nc3cnc(Cl)cc3o1)C2)c1ccc(S(=O)(=O)C2CC2)o1 (stereo not drawn) [Example 51, N-[6-(6-chlorooxazolo[4,5-c]pyridin-2-yl)spiro[3.3]heptan-2-yl]-5-cyclopropylsulfonyl-furan-2-carboxamide]	1140	> 100000	1800
CS(=N)(=O)c1ccc(C(=O)NC2CC3(C2)CC(c2nc4cc(Cl)ccc4o2)C3)o1 (stereo not drawn) [Example 52, N-[6-(5-chloro-1,3-benzoxazol-2-yl)spiro[3.3]heptan-2-yl]-5-(methylsulfonimidoyl)furan-2-carboxamide]	1200	72000	1700
[H][C@]1(NC(=O)c2ccc([S@](C)(=N)=O)o2)C[C@]2(C1)C[C@]([H])(c1nc3cc(Cl)ccc3o1)C2 (stereo partly drawn) [Example 52-d, (Ra)—N-[6-(5-chloro-1,3-benzoxazol-2-yl)spiro[3.3]heptan-2-yl]-5-[(R)-methylsulfonimidoyl]furan-2-carboxamide]	876	> 100000	966
N=S(=O)(c1ccc(C(=O)NC2CC3(C2)CC(c2nc4cc(Cl)ccc4o2)C3)o1)C1CC1 (stereo not drawn) [Example 53, N-[6-(5-chloro-1,3-benzoxazol-2-yl)spiro[3.3]heptan-2-yl]-5-(cyclopropylsulfonimidoyl)furan-2-carboxamide]	394	> 10000	494
[H][C@]1(NC(=O)c2ccc([S@](=N)(=O)C3CC3)o2)C[C@]2(C1)C[C@]([H])(c1nc3cc(Cl)ccc3o1)C2 (stereo partly drawn) [Example 53-c, (Ra)—N-[6-(5-chloro-1,3-benzoxazol-2-yl)spiro[3.3]heptan-2-yl]-5-[(R)-cyclopropylsulfonimidoyl]furan-2-carboxamide]	621	91900	650
N=S(=O)(CC1CC1)c1ccc(C(=O)NC2CC3(C2)CC(c2nc4cc(Cl)ccc4o2)C3)o1 (stereo not drawn) [Example 54, N-[6-(5-chloro-1,3-benzoxazol-2-yl)spiro[3.3]heptan-2-yl]-5-(cyclopropylmethylsulfonimidoyl)furan-2-carboxamide]	542	88800	470
CC(C)CS(=N)(=O)c1ccc(C(=O)NC2CC3(C2)CC(c2nc4cc(Cl)ccc4o2)C3)o1 (stereo not drawn) [Example 55, N-[6-(5-chloro-1,3-benzoxazol-2-yl)spiro[3.3]heptan-2-yl]-5-(isobutylsulfonimidoyl)furan-2-carboxamide]	988	83300	802
N=S(=O)(CC1COC1)c1ccc(C(=O)NC2CC3(C2)CC(c2nc4cc(Cl)ccc4o2)C3)o1 (stereo not drawn) [Example 56, N-[6-(5-chloro-1,3-benzoxazol-2-yl)spiro[3.3]heptan-2-yl]-5-(oxetan-3-ylmethylsulfonimidoyl)furan-2-carboxamide]	2900	> 100000	4410
N=S(=O)(CC1CC(F)(F)C1)c1ccc(C(=O)NC2CC3(C2)CC(c2nc4cc(Cl)ccc4o2)C3)o1 (stereo not drawn) [Example 57, N-[6-(5-chloro-1,3-benzoxazol-2-yl)spiro[3.3]heptan-2-yl]-5-[(3,3-difluorocyclobutyl)methylsulfonimidoyl]furan-2-carboxamide]	754	81900	884
CCS(=N)(=O)Cc1ccc(C(=O)NC2CC3(C2)CC(c2nc4cc(Cl)ccc4o2)C3)o1 (stereo not drawn) [Example 58, N-[6-(5-chloro-1,3-benzoxazol-2-yl)spiro[3.3]heptan-2-yl]-5-[(ethylsulfonimidoyl)methyl]furan-2-carboxamide]	5880	> 100000	8790
CC(C)S(=N)(=O)Cc1ccc(C(=O)NC2CC3(C2)CC(c2nc4cc(Cl)ccc4o2)C3)o1 (stereo not drawn) [Example 59, N-[6-(5-chloro-1,3-benzoxazol-2-yl)spiro[3.3]heptan-2-yl]-5-[(isopropylsulfonimidoyl)methyl]furan-2-carboxamide]	2600	> 100000	3810
N=S(=O)(Cc1ccc(C(=O)NC2CC3(C2)CC(c2nc4cc(Cl)ccc4o2)C3)o1)C1CC1 (stereo not drawn) [Example 60, N-[6-(5-chloro-1,3-benzoxazol-2-yl)spiro[3.3]heptan-2-yl]-5-[(cyclopropylsulfonimidoyl)methyl]furan-2-carboxamide]	1910	> 100000	1960
O=C(NC1CC2(C1)CC(c1nc3cc(Cl)ccc3o1)C2)c1ccc(S2(=O)=NCCC2)o1 (stereo not drawn) [Example 61, N-[6-(5-chloro-1,3-benzoxazol-2-yl)spiro[3.3]heptan-2-yl]-5-(1-oxo-4,5-dihydro-3H-isothiazol-1-yl)furan-2-carboxamide]	3140	> 100000	3650
O=C(NC1CC2(C1)CC(c1nc3cc(Cl)ccc3o1)C2)c1ccc(S2(=O)=NCCCC2)o1 (stereo not drawn) [Example 62, N-[6-(5-chloro-1,3-benzoxazol-2-yl)spiro[3.3]heptan-2-yl]-5-(1-oxo-1lambda6-thia-2-azacyclohexen-1-yl)furan-2-carboxamide]	4850	> 100000	5010
